Assay results taken from ChEMBL document CHEMBL1201862, “PubChem BioAssay data set” (2004).
Calls of active or inactive are those of the source.

What was measured:
[1] = target: T1, RNA-binding protein pos-1 (Caenorhabditis elegans, UniProt G5EF15); assay: inhibitors of POS-1/mex-3 RNA binding, dose response, biochemical, fluorescence polarization (AID 1964);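 note: purified POS-1 fused to maltose binding protein made in E. coli; potency of compounds blocking POS-1 binding to fluorescent RNA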
T1 sequence (G5EF15 whole entry): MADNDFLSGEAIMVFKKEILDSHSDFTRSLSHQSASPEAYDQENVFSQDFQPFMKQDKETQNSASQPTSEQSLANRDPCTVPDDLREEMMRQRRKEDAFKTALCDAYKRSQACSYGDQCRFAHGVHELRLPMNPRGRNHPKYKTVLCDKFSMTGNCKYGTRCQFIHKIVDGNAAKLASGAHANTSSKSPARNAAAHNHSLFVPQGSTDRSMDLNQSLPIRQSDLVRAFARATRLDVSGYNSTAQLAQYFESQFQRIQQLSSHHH

[2] = target: T2, Zinc finger protein mex-5 (Caenorhabditis elegans, UniProt Q9XUB2); assay: MEX-5/TCR-2 RNA interaction inhibitors, dose response, biochemical, C. elegans, fluorescence polarization (AID 1960)
T2 sequence (Q9XUB2 whole entry): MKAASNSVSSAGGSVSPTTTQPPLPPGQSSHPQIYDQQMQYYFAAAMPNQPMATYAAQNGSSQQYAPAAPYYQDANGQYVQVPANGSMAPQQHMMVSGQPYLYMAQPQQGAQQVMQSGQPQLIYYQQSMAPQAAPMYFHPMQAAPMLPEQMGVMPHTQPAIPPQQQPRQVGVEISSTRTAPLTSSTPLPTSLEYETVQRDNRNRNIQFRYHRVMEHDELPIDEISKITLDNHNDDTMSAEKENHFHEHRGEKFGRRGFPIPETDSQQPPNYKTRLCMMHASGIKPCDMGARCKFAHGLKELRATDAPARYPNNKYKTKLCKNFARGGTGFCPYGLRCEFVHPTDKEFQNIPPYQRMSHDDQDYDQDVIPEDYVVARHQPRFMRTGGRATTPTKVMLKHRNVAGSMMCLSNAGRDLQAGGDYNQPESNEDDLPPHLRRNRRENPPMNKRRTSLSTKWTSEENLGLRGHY

[3] = target: T3, Endoribonuclease toxin MazF (Escherichia coli K-12, UniProt P0AE70); assay: MazF toxin RNase activators, dose response, biochemical, fluorescence, single-stranded RNA substrate, uHTS hits (AID 588481); assay type: functional
T3 sequence (P0AE70 whole entry): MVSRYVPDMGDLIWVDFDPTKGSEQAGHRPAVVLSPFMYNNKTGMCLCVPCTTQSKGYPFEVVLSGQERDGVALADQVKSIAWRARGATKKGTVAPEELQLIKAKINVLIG

[4] = target: T3, Endoribonuclease toxin MazF; assay: fluorescent RNA oligo signal without MazF, dose response, counter-screen for MazEF activator project, biochemical, fluorescence, single-stranded RNase substrate (AID 588502); assay type: functional
[5] = target: T4, Bcl-2-related protein A1 (Mus musculus, UniProt Q07440); assay type: functional;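 note: confirmatory dose–response counterscreen on Bfl-1, used to check hits from a UBC13 polyubiquitin inhibitor campaign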
T4 sequence (Q07440 whole entry): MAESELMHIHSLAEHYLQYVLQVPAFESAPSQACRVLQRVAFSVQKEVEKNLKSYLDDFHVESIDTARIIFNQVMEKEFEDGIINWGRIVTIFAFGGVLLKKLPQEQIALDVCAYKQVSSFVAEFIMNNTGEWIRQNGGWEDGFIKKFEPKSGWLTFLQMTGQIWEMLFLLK

[6] = target: T5, Ubiquitin-conjugating enzyme E2 N (Homo sapiens, UniProt P61088); assay type: functional
T5 sequence (P61088 whole entry): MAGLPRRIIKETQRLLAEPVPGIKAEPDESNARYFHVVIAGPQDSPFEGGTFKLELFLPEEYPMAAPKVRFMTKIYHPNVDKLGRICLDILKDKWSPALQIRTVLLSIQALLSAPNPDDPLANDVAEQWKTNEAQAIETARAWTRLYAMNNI

[7] = target: T5, Ubiquitin-conjugating enzyme E2 N; assay type: functional; remark: listed apart in the source
[8] = target: T6, Heat shock factor protein 1 (Mus musculus, UniProt P38532); assay: HSF1 potentiators in luciferase reporter cells, confirmation, cell-based, NIH3T3, luminescence, dose retest (AID 435004); assay type: functional;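 note: stress induced by proteasome inhibitor MG132 added 30 min after compound; luciferase reporter driven by HSF1 response element in NIH3T3 cells; actives raise luminescence as potentiators of the MG132 stress response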
T6 sequence (P38532 whole entry): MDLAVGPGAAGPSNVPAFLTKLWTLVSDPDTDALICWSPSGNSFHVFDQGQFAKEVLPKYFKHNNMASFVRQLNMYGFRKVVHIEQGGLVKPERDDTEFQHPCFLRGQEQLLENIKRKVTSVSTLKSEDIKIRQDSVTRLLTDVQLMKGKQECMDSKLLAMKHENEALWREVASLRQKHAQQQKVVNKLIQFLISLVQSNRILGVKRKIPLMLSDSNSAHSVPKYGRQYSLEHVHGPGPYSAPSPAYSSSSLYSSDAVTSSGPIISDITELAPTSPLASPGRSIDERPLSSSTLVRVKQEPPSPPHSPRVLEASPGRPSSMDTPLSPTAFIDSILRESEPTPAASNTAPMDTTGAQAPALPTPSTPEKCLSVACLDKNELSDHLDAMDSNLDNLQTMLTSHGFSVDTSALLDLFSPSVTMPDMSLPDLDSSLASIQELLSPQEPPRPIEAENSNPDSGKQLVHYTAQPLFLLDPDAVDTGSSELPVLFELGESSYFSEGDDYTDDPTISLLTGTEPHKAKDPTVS

[9] = target: Dual specificity tyrosine-phosphorylation-regulated kinase 1A (Rattus norvegicus, UniProt Q63470); assay type: biochemical, Homo sapiens
[10] = target: Troponin, cardiac muscle (Homo sapiens, UniProt P19429+P45379+P63316); assay: Fluorescence-based biochemical high throughput dose response assay for activators of the calcium sensitivity of cardiac Regulated Thin Filaments (RTF). [Related pubchem assays (depositor defined):AID493008, AID493018, AID504382, AID504383]; assay type: protein-complex assay
[11] = target: T7, Carboxy-terminal domain RNA polymerase II polypeptide A small phosphatase 1 (Homo sapiens, UniProt Q9GZU7); assay: inhibitors of CTDSP1, concentration-response testing, biochemical assay, absorbance-based, actives from ultra-high-throughput screening (AID 540297); assay type: functional
T7 sequence (Q9GZU7 whole entry): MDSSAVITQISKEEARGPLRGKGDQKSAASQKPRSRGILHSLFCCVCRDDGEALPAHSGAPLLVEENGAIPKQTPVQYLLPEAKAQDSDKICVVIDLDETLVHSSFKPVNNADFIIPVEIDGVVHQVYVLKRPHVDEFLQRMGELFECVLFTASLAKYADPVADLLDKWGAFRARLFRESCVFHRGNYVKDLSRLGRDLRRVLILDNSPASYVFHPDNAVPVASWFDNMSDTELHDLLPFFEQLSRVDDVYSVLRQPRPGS

[12] = target: DNA dC->dU-editing enzyme APOBEC-3A (Homo sapiens, UniProt P31941); assay: Dose Response confirmation of small molecule APOBEC3A DNA Deaminase Inhibitors via a fluorescence-based single-stranded DNA deaminase assay. [Related pubchem assays (depositor defined):AID493011, AID493024]; assay type: functional
Sequence of DNA dC->dU-editing enzyme APOBEC-3A (P31941 whole entry): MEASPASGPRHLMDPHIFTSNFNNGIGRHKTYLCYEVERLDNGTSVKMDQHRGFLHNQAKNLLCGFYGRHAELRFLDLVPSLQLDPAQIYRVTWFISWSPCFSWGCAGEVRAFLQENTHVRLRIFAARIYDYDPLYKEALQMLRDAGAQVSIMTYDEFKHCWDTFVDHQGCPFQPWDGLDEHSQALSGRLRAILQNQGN

[13] = target: DNA dC->dU-editing enzyme APOBEC-3G (Homo sapiens, UniProt Q9HC16); assay type: functional;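 note: Dose-response counterscreen measuring inhibition of APOBEC3G DNA deaminase activity, run while confirming APOBEC3A inhibitors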
Sequence of DNA dC->dU-editing enzyme APOBEC-3G (Q9HC16 whole entry): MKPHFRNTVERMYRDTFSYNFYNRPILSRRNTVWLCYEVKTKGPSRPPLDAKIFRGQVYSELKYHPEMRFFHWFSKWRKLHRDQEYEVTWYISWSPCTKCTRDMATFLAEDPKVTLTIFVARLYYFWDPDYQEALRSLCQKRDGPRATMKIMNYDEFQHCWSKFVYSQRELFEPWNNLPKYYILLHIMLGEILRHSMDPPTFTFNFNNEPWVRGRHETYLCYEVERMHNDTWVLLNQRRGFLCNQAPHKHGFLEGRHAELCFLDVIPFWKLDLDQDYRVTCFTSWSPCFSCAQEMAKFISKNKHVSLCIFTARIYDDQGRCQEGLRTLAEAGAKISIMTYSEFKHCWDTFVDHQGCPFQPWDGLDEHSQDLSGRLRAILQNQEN

[14] = inhibitors of Vif binding to APOBEC3G peptide, primary screen, biochemical, TR-FRET, GST-Vif 1-94, biotin-A3G peptide, dose response retest (AID 1117319); assay type: functional;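 note: TR-FRET signal of purified GST-Vif binding a biotinylated A3G peptide; inhibitors lower the FRET signal by blocking Vif and A3G binding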
[15] = test system: Vero; assay: Vero cell cytotoxicity, cytotoxicity control for flavivirus capping enzyme inhibitors (AID 588742); assay type: functional; settings: Chlorocebus sabaeus
[16] = NIH-3T3 fibroblast cytotoxicity, dose response, cytotoxicity control, cell-based, fluorescence, Alamar Blue, secondary assay (AID 2327); assay type: functional;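 note: NIH-3T3 mouse fibroblasts cultured with fluconazole at 8 µg/mL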
[17] = Luminescence Cell-Based Dose Confirmation HTS to Identify Activators of 5'UTR Stem-Loop Driven Alpha-Synuclein mRNA Translation in H4 Neuroglioblastoma Cells. [Related pubchem assays: 1829 (Project Summary), 1814 (Primary HTS)]; assay type: functional
[18] = Luminescence Cell-Based Dose Response HTS to Identify Activators of Luciferase Translation or Activity in H4 […] Cells. [Related pubchem assays: 1829 (Project Summary), 1814 (Primary HTS)]; assay type: functional
[19] = test system: H4; assay: Luminescence Cell-Based Dose Response HTS to Identify Activators of 5'UTR Stem-Loop Driven Prion Protein mRNA Translation in H4 Neuroglioblastoma Cells. [Related pubchem assays: 1829 (Project Summary), 1814 (Primary HTS)]; assay type: functional; settings: Homo sapiens
[20] = C. albicans growth with fluconazole, confirmation, fluorescence, retest (AID 2467); assay type: functional, cell-based
[21] = inhibitors of intracellular T. cruzi replication, confirmation, NIH3T3 host cells, beta-gal luminescence (AID 2044); assay type: functional, cell-based;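 note: intracellular parasites grown in NIH/3T3 mouse fibroblasts as host cells; luminescent beta-galactosidase reporter signal from transgenic T. cruzi replicating inside host cells; inhibitors lower the luminescence signal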
[22] = cytotoxicity toward NIH3T3 fibroblasts, dose response, counter-screen, cell-based, ATP luminescence, mouse fibroblasts (AID 2010); assay type: functional;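 note: cells exposed to compound for about 90 hours before reading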
[23] = test system: HEK293; assay: inhibitors of LMP1-driven NF-kB reporter, dose response, cell-based, HEK293, luciferase, cherry-pick (AID 588343); assay type: functional; settings: Homo sapiens
[24] = test system: INS1; assay: beta cell apoptosis inhibitors, cytokine rescue, dose response, luminescence, retest (AID 449756); assay type: functional, cell-based; settings: Rattus norvegicus;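 note: cell death triggered by IL-1 beta plus TNF-alpha plus IFN-gamma mixture; protective hits raise ATP signal compared with cytokine alone wells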
[25] = Shn3 3'UTR reporter inhibitors, dose response, cell-based, Clone20 osteoblasts, firefly luciferase, cherry-picked (AID 624132); assay type: functional;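 note: firefly luciferase luminescence from reporter carrying the Shn3 3'UTR in osteoblasts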
[26] = HepG2 cell cytotoxicity, dose response, cytotoxicity control for Shn3 inhibitor project, CellTiter-Glo, cherry-picked (AID 624134); assay type: functional, cell-based
[27] = control 3'UTR Renilla luciferase suppression, dose response, counter-screen for Shn3 inhibitor project, cell-based, Clone20-Shn3RL, cherry-picked (AID 624133); assay type: functional

CCCCN1C(=O)NC(=O)/C(=C/c2c[nH]c3ccccc23)C1=O
EC50 [1]: 28.4 µM (inconclusive) | EC50 [2]: 29.9 µM (active) | EC50 [3]: > 99 µM (inactive) | EC50 [4]: > 99 µM (inactive)

O=C(CSCc1ccc([N+](=O)[O-])cc1)N[N-][C+]1CCCCCC1
IC50 [5]: > 20 µM (inactive) | IC50 [6]: 13.7 µM (active) | IC50 [7]: 5.71 µM (active)

O=C1NC(=S)S/C1=C/c1ccc(OC(=O)c2ccco2)cc1
EC50 [8]: > 260 µM (inactive) | EC50 [3]: > 99 µM (inactive) | EC50 [4]: 16.4 µM (active) | AC50 [9]: 4.1 µM (active)

CCc1nc(Nc2cccc(O)c2)c2oc3ccccc3c2n1
AC50 [9]: 9.77 µM (active)

CC(=O)C(=CNc1noc(C)c1Br)C(C)=O
EC50 [10]: > 71.6 µM (inactive)

COc1ccc2c(c1)c(=O)oc1c(C)c(OCc3cc(C(=O)O)oc3C)ccc12
AC50 [9]: 1.51 µM (active) | IC50 [11]: 9.08 µM (active)

CNc1ccccc1C(C)(C)c1cc(C)[nH]n1
EC50 [10]: > 71.5 µM (inactive)

COc1ccc(S(=O)(=O)N(CCc2ccccc2)CC(=O)NC(C)C)cc1
IC50 [12]: 6.35 µM (active) | IC50 [13]: 5.95 µM (active) | IC50 [14]: > 100 µM (active)

O=C(NCc1ccco1)c1cc(-c2cccs2)nc2ccccc12
CC50 [15]: > 40 µM (active)

CCn1c(/C=C/c2ccc([N+](=O)[O-])o2)nc2ccccc2c1=O
EC50 [16]: 7.6 µM (inconclusive) | EC50 [1]: 5.46 µM (inconclusive) | EC50 [17]: > 120 µM (not active) | EC50 [18]: > 60 µM (not active) | EC50 [19]: > 120 µM (not active) | EC50 [2]: > 150 µM (inconclusive) | EC50 [20]: 0.682 µM (active) | EC50 [21]: 0.213 µM (active) | EC50 [22]: 3.14 µM (active) | AC50 [23]: 10.8 µM (active) | EC50 [3]: > 99 µM (inactive) | AC50 [24]: 3.43 µM (active) | EC50 [4]: > 99 µM (inactive) | AC50 [25]: 4.51 µM (active) | AC50 [26]: 13.6 µM (active) | AC50 [27]: 8.48 µM (active)

NC(=O)NC(CC(=O)NNC(=O)c1ccccn1)c1ccc(Cl)cc1 (stereo not given)
IC50 [5]: > 20 µM (inactive) | IC50 [6]: 12.4 µM (active) | IC50 [7]: 19.6 µM (active)

Cc1cc(Cl)nc(N)n1
EC50 [10]: > 71.4 µM (inactive)

COc1cccc(/C=N\NC(=O)c2sc(N)nc2C)c1OC
IC50 [5]: > 20 µM (inactive) | IC50 [6]: 0.965 µM (active) | IC50 [7]: 0.947 µM (active)

COc1cc2c(cc1OC)-c1c(OC)c(OC)cc3c1[C@H](C2)[N+](C)(C)CC3 [GLAUCINE METHIODIDE]
IC50 [12]: 1.85 µM (active) | IC50 [13]: 1.66 µM (active)
